Test system: C666-1 cells
Assay: C666-1 cell viability single concentration (50 μM) inhibition rate (Resazurin)
Type: cell-based
Conditions: 50 μM compound, 72 hours, C666-1 cells
How it was run: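 EBV-positive C666-1 cells (5×10^3/well), pre-cultured 24 h, were exposed to compound at 50 μmol/L final for 72 h at 37° C, 5% CO2, in duplicate. Viability by resazurin (3 h, ex 560/em 590 nm); inhibition rate computed relative to DMSO control and medium-only blank.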

Question: `O=C(O)c1cccc(N2CC(Oc3ccc([N+](=O)[O-])cc3)C2)c1-n1cccc1` [Example 301, 3-(3-(4-nitrophenoxy)azetidin-1-yl)-2-(1H-pyrrol-1-yl)benzoic acid] was tested. Which “C666-1 cell viability single concentration (50 μM) inhibition rate, Ratio* (Inh %)” value did it give?
Answer: ++++ (>50% ++++)

Same assay, conditions: Homo sapiens, C6661, 72 h, 50 μM compound, 72 hours, C666-1 cells; read-out: C666-1 cell viability single concentration (50 μM) inhibition rate, Ratio* (Inh %)

Question: With `COC(=O)c1cccc(N2CC(Oc3cccc(-c4csc(NS(C)(=O)=O)n4)c3)C2)c1-n1cccc1` [Example 288, Methyl 3-(3-(3-(2-(methylsulfonamido)thiazol-4-yl)phenoxy)azetidin-1-yl)-2-(1H-pyrrol-1-yl)benzoate] as the molecule, how does the inhibition at 50 µM read?
Answer: < 10%

Question: `COc1ccccc1NC(=O)Nc1ccc(OC2CN(c3cccc(C(=O)O)c3-n3cccc3)C2)cc1` [Example 289, 3-(3-(4-(3-(2-methoxyphenyl)ureido)phenoxy)azetidin-1-yl)2-(1H-pyrrol-1-yl)benzoic acid] was tested. Which inhibition at 50 µM did it give?
Answer: 10 to 30%

Question: For `COC(=O)c1cccc(N2CC(Oc3ccc(Oc4ccc(C(F)(F)F)cc4)cc3)C2)c1-n1cccc1` [Example 291, Methyl 3-(3-(4-(4-(trifluoromethyl)phenoxy)phenoxy)azetidin-1-yl)2-(1H-pyrrol-1-yl)benzoate], which inhibition at 50 µM is on record?
Answer: < 10%

Question: Which inhibition at 50 µM does the source give for `COC(=O)c1cccc(N2CC(Oc3ccc(Oc4cccc(C(C)=O)c4)cc3)C2)c1-n1cccc1` [Example 293, Methyl 3-(3-(4-(3-acetylphenoxy)phenoxy)azetidin-1-yl)-2-(1H-pyrrol-1-yl)benzoate] here?
Answer: 10 to 30%

Question: For `CC(=O)c1cccc(Oc2ccc(OC3CN(c4cccc(C(=O)O)c4-n4cccc4)C3)cc2)c1` [Example 294, 3-(3-(4-(3-acetylphenoxy)phenoxy)azetidin-1-yl)-2-(1H-pyrrol-1-yl)benzoic acid], which inhibition at 50 µM is on record?
Answer: < 10%

Question: For `COC(=O)c1cccc(N2CC(Oc3cccc(NC(=O)Nc4ccc(OC(F)(F)F)cc4)c3)C2)c1-n1cccc1` [Example 295, Methyl 3-(3-(3-(3-(4-(trifluoromethoxy)phenyl)ureido)phenoxy)azetidin-1-yl)-2-(1H-pyrrol-1-yl)benzoate], which inhibition at 50 µM is on record?
Answer: > 50%

Question: `O=C(Nc1ccc(OC(F)(F)F)cc1)Nc1cccc(OC2CN(c3cccc(C(=O)O)c3-n3cccc3)C2)c1` [Example 296, 3-(3-(3-(3-(4-(trifluoromethoxy)phenyl)ureido)phenoxy)azetidin-1-yl)-2-(1H-pyrrol-1-yl)benzoic acid] was tested. Which inhibition at 50 µM did it give?
Answer: < 10%

Question: `COC(=O)c1cccc(N2CC(Oc3cccc(CO)c3)C2)c1-n1cccc1` [Example 297, Methyl 3-(3-(3-(hydroxymethyl)phenoxy)azetidin-1-yl)-2-(1H-pyrrol-1-yl)benzoate] was tested. Which inhibition at 50 µM did it give?
Answer: 30 to 50%

Question: With `O=C(O)c1cccc(N2CC(Oc3cccc(CO)c3)C2)c1-n1cccc1` [Example 298, 3-(3-(3-(hydroxymethyl)phenoxy)azetidin-1-yl)-2-(1H-pyrrol-1-yl)benzoic acid] as the molecule, how does the inhibition at 50 µM read?
Answer: < 10%

Question: With `COC(=O)c1cccc(N2CC(Oc3ccc(CO)cc3C)C2)c1-n1cccc1` [Example 299, Methyl 3-(3-(4-(hydroxymethyl)-2-methylphenoxy)azetidin-1-yl)-2-(1H-pyrrol-1-yl)benzoate] as the molecule, how does the inhibition at 50 µM read?
Answer: > 50%

Question: For `Cc1cc(CO)ccc1OC1CN(c2cccc(C(=O)O)c2-n2cccc2)C1` [Example 300, 3-(3-(4-(hydroxymethyl)-2-methylphenoxy)azetidin-1-yl)-2-(1H-pyrrol-1-yl)benzoic acid], which inhibition at 50 µM is on record?
Answer: < 10%

Question: Which inhibition at 50 µM does the source give for `CCNC(=O)c1ccc(OC2CN(c3cccc(C(=O)OC)c3-n3cccc3)C2)cc1` [Example 303, Methyl 3-(3-(4-(ethylcarbamoyl)phenoxy)azetidin-1-yl)-2-(1H-pyrrol-1-yl)benzoate] here?
Answer: 10 to 30%

Question: How did the inhibition at 50 µM turn out when `COC(=O)c1cccc(N2CC(Oc3ccc4c(ccn4S(=O)(=O)c4ccc(C)cc4)c3)C2)c1-n1cccc1` [Example 304, Methyl 3-(3-((1-p-tolylsulfonyl-1H-indol-5-yl)oxy)azetidin-1-yl)-2-(1H-pyrrol-1-yl)benzoate] was run?
Answer: < 10%

Question: `Cc1ccc(S(=O)(=O)n2ccc3cc(OC4CN(c5cccc(C(=O)O)c5-n5cccc5)C4)ccc32)cc1` [Example 305, 3-(3-((1-p-tolylsulfonyl-1H-indol-5-yl)oxy)azetidin-1-yl)-2-(1H-pyrrol-1-yl)benzoic acid] was tested. Which inhibition at 50 µM did it give?
Answer: < 10%

Question: For `COCCOc1ccc(OC2CN(c3cccc(C(=O)OC)c3-n3cccc3)C2)cc1OCCOC` [Example 306, Methyl 3-(3-(3,4-bis(2-methoxyethoxy)phenoxy)azetidin-1-yl)-2-(1H-pyrrol-1-yl)benzoate], which inhibition at 50 µM is on record?
Answer: < 10%

Question: For `COCCOc1ccc(OC2CN(c3cccc(C(=O)O)c3-n3cccc3)C2)cc1OCCOC` [Example 307, 3-(3-(3,4-bis(2-methoxyethoxy)phenoxy)azetidin-1-yl)-2-(1H-pyrrol-1-yl)benzoic acid], which inhibition at 50 µM is on record?
Answer: < 10%

Question: `COC(=O)c1cccc(N2CC(Oc3ccc(OC4CCCCO4)cc3)C2)c1-n1cccc1` (stereo not drawn) [Example 308, Methyl 3-(3-(4-((tetrahydro-2H-pyran-2-yl)oxy)phenoxy)azetidin-1-yl)-2-(1H-pyrrol-1-yl)benzoate] was tested. Which inhibition at 50 µM did it give?
Answer: < 10%

Question: Which inhibition at 50 µM does the source give for `CNCCOc1ccc(OC2CN(c3cccc(C(=O)OC)c3-n3cccc3)C2)cc1` [Example 309, Methyl 3-(3-(4-(2-(methylamino)ethoxy)phenoxy)azetidin-1-yl)-2-(1H-pyrrol-1-yl)benzoate] here?
Answer: 10 to 30%

Question: Which inhibition at 50 µM does the source give for `COC(=O)c1cccc(N2CC(Oc3ccc(OCCN)cc3)C2)c1-n1cccc1` [Example 310, Methyl 3-(3-(4-(2-aminoethoxy)phenoxy)azetidin-1-yl)-2-(1H-pyrrol-1-yl)benzoate] here?
Answer: < 10%

Question: Which inhibition at 50 µM does the source give for `COC(=O)c1cccc(N2CC(Oc3ccc(OCCN)c(OC)c3)C2)c1-n1cccc1` [Example 311, Methyl 3-(3-(4-(2-aminoethoxy)-3-methoxyphenoxy)azetidin-1-yl)-2-(1H-pyrrol-1-yl)benzoate] here?
Answer: 10 to 30%

Question: For `COC(=O)c1cccc(N2CC(Oc3ccc(OCCNC(C)=O)cc3)C2)c1-n1cccc1` [Example 312, Methyl 3-(3-(4-(2-acetylaminoethoxy)phenoxy)azetidin-1-yl)-2-(1H-pyrrol-1-yl)benzoate], which inhibition at 50 µM is on record?
Answer: 30 to 50%

Question: For `CC(=O)NCCOc1ccc(OC2CN(c3cccc(C(=O)O)c3-n3cccc3)C2)cc1` [Example 313, 3-(3-(4-(2-acetylaminoethoxy)phenoxy)azetidin-1-yl)-2-(1H-pyrrol-1-yl)benzoic acid], which inhibition at 50 µM is on record?
Answer: < 10%

Question: Which inhibition at 50 µM does the source give for `COC(=O)c1cccc(C#CN(Cc2ccco2)S(=O)(=O)c2ccc(C)cc2)c1-n1cccc1` [Example 314, Methyl 3-(((N-(furan-2-yl-methyl)-4-methylphenyl)sulfonamido)ethynyl)-2-(1H-pyrrol-1-yl)benzoate] here?
Answer: < 10%

Question: With `COC(=O)c1cccc(C#CN(Cc2ccc3c(ccn3C)c2)S(=O)(=O)c2ccc(C)cc2)c1-n1cccc1` [Example 316, Methyl 3-(((4-methyl-N-((1-methyl-1H-indol-5-yl)methyl)phenyl)sulfonamido)ethynyl)-2-(1H-pyrrol-1-yl)benzoate] as the molecule, how does the inhibition at 50 µM read?
Answer: < 10%

Same assay, conditions: Homo sapiens, C6661, 72 h, read-out: C666-1 cell viability single concentration (50 μM) inhibition rate, Ratio* (Inh %)

Question: With `Cc1ccc(S(=O)(=O)N(C#Cc2cccc(C(=O)O)c2-n2cccc2)Cc2ccco2)cc1` [Example 315, Lithium 3-(((N-(furan-2-yl-methyl)-4-methylphenyl)sulfonamido)ethynyl)-2-(1H-pyrrol-1-yl)benzoate] as the molecule, how does the inhibition at 50 µM read?
Answer: > 50%

Question: How did the inhibition at 50 µM turn out when `Cc1ccc(S(=O)(=O)N(C#Cc2cccc(C(=O)O)c2-n2cccc2)Cc2ccc3c(ccn3C)c2)cc1` [Example 317, Lithium 3-(((4-methyl-N-((1-methyl-1H-indol-5-yl)methyl)phenyl)sulfonamido)ethynyl)-2-(1H-pyrrol-1-yl)benzoate] was run?
Answer: 10 to 30%
